From US20230278972A1, “SUBSTITUTED HALOALKYL SULFONANILIDE HERBICIDES” (FMC Corporation, priority 2020, published 2023)

Columns and labels:
Type in all cases: in vivo
[1] = tested on: galium (catchweed bedstraw, Galium aparine); assay: Test A postemergence, galium; conditions: Postemergence, 0 to 100 scale (0 no effect, 100 complete control)
In short: (§1)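 Pots: loam soil/sand blend. Pre: directed soil spray at planting. Post: plants 2–10 cm, 1–2 leaf stage. Formulation: non-phytotoxic solvent + surfactant.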

[2] = tested on: kochia (Bassia scoparia); assay: Test A preemergence, kochia; conditions: Preemergence; for Plant response rating, Kochia: 0 to 100 scale (0 no effect, 100 complete control); for Kochia plant response rating: 500 g ai/ha, visual injury on 0 to 100 scale (0 no effect, 100 complete control), approximately 10 days
In short: (§2)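 Whole-plant herbicidal screen in pots of loam blended with sand. Sprays used a surfactant-containing, non-phytotoxic solvent vehicle. Timing was preemergence soil-directed at planting or postemergence at the one- to two-leaf stage (2–10 cm).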

[3] = tested on: pigweed (Amaranthus retroflexus); assay: Test A postemergence, pigweed; conditions: Postemergence, 0 to 100 scale (0 no effect, 100 complete control)
In short: as §2

[4] = tested on: Ryegrass, Italian (Italian ryegrass, Lolium multiflorum); assay: Test A preemergence, Ryegrass, Italian; conditions: Preemergence; for Plant response rating, Ryegrass, Italian: 0 to 100 scale (0 no effect, 100 complete control); for Ryegrass, Italian plant response rating: 500 g ai/ha, visual injury on 0 to 100 scale (0 no effect, 100 complete control), approximately 10 days
In short: as §2

[5] = tested on: Foxtail, Giant (giant foxtail, Setaria faberi); assay: Test A preemergence, Foxtail, Giant; conditions: Preemergence; for Plant response rating, Foxtail, Giant: 0 to 100 scale (0 no effect, 100 complete control); for Foxtail, Giant plant response rating: 500 g ai/ha, visual injury on 0 to 100 scale (0 no effect, 100 complete control), approximately 10 days
In short: as §2

[6] = tested on: Ryegrass, Italian (Italian ryegrass, Lolium multiflorum); assay: Test A postemergence, Ryegrass, Italian; conditions: Postemergence, 0 to 100 scale (0 no effect, 100 complete control)
In short: as §2

[7] = tested on: blackgrass (Alopecurus myosuroides); assay: Test A postemergence, blackgrass; conditions: Postemergence, 0 to 100 scale (0 no effect, 100 complete control)
In short: as §2

[8] = tested on: kochia (Bassia scoparia); assay: Test A postemergence, kochia; conditions: Postemergence, 0 to 100 scale (0 no effect, 100 complete control)
In short: as §2

[9] = tested on: wheat (Triticum aestivum); assay: Test A postemergence, wheat; conditions: Postemergence, 0 to 100 scale (0 no effect, 100 complete control)
In short: as §1

[10] = tested on: barnyardgrass (Echinochloa crus-galli); assay: Test A postemergence, barnyardgrass; conditions: Postemergence, 0 to 100 scale (0 no effect, 100 complete control)
In short: as §1

[11] = tested on: corn (Zea mays); assay: Test A postemergence, corn; conditions: Postemergence, 0 to 100 scale (0 no effect, 100 complete control)
In short: as §2

[12] = tested on: ragweed (common ragweed, Ambrosia artemisiifolia); assay: Test A postemergence, ragweed; conditions: Postemergence, 0 to 100 scale (0 no effect, 100 complete control)
In short: as §2

[13] = tested on: barnyardgrass (Echinochloa crus-galli); assay: Test A preemergence, barnyardgrass; conditions: Preemergence; for Plant response rating, Barnyardgrass: 0 to 100 scale (0 no effect, 100 complete control); for Barnyardgrass plant response rating: visual injury on 0 to 100 scale (0 no effect, 100 complete control), approximately 10 days
In short: as §2

[14] = tested on: ragweed (common ragweed, Ambrosia artemisiifolia); assay: Test A preemergence, ragweed; conditions: Preemergence; for Plant response rating, Ragweed: 0 to 100 scale (0 no effect, 100 complete control); for Ragweed plant response rating: 500 g ai/ha, visual injury on 0 to 100 scale (0 no effect, 100 complete control), approximately 10 days
In short: as §2

[15] = tested on: Foxtail, Giant (giant foxtail, Setaria faberi); assay: Test A postemergence, Foxtail, Giant; conditions: Postemergence, 0 to 100 scale (0 no effect, 100 complete control)
In short: as §2

[16] = tested on: pigweed (Amaranthus retroflexus); assay: Test A preemergence, pigweed; conditions: for Plant response rating, Pigweed: 0 to 100 scale (0 no effect, 100 complete control); for Pigweed plant response rating: 500 g ai/ha, visual injury on 0 to 100 scale (0 no effect, 100 complete control), approximately 10 days
In short: as §1

[17] = 500 g ai/ha, visual injury vs untreated controls after approx. 10 days
[18] = 125 g ai/ha, visual injury, approx. 10 days
[19] = 500 g ai/ha, visual injury approx. 10 days
[20] = 1000 g ai/ha, visual injury, approx. 10 days

Structure (SMILES)	Plant response rating, Galium ([1]; 125 g ai/ha)	Plant response rating, Kochia [2, 18]	Kochia plant response rating [2]	Plant response rating, Pigweed ([3]; 125 g ai/ha)	Plant response rating, Ryegrass, Italian [4, 18]	Ryegrass, Italian plant response rating [4]	Plant response rating, Foxtail, Giant [5, 18]	Foxtail, Giant plant response rating [5]	Plant response rating, Ryegrass, Italian ([6]; 125 g ai/ha)	Plant response rating, Blackgrass ([7]; 125 g ai/ha)	Plant response rating, Kochia ([8]; 125 g ai/ha)	Plant response rating, Wheat ([9]; 125 g ai/ha)	Plant response rating, Barnyardgrass ([10]; 125 g ai/ha)	Plant response rating, Corn ([11]; 125 g ai/ha)	Plant response rating, Ragweed ([12]; 125 g ai/ha)	Plant response rating, Barnyardgrass [13, 18]	Plant response rating, Ragweed [14, 18]	Ragweed plant response rating [14]	Plant response rating, Foxtail, Giant ([15]; 125 g ai/ha)	Plant response rating, Pigweed [16, 18]	other results
Cc1cc(F)c(C(=O)N2CCC(C#N)CC2)cc1N(S(=O)(=O)C(F)(F)F)S(=O)(=O)C(F)(F)F [Compound 239]	0	30	80	20	0	30	20	60	0	0	0	0	0	0	0	0	20	70	0	60	Galium plant response rating [1, 17]: 40; Pigweed plant response rating [3, 17]: 50; Ryegrass, Italian plant response rating [6, 17]: 0; Blackgrass plant response rating [7, 17]: 0; Kochia plant response rating [8, 17]: 10; Wheat plant response rating [9, 17]: 0; Barnyardgrass plant response rating [10, 17]: 0; Corn plant response rating [11, 17]: 10; Ragweed plant response rating [12, 17]: 0; Plant response rating, Barnyardgrass ([13]; 500 g ai/ha): 20; Foxtail, Giant plant response rating [15, 17]: 30; Pigweed plant response rating [16]: 90
Cc1cc(F)c(C(=O)N2CCOCC2)cc1NS(=O)(=O)C(F)(F)F [Compound 240]	50	70	90	30	40	70	30	80	30	0	50	0	40	20	70	0	30	50	20	0	Plant response rating, Galium [1, 19]: 70; Plant response rating, Pigweed [3, 19]: 50; Plant response rating, Ryegrass, Italian [6, 19]: 60; Plant response rating, Blackgrass [7, 19]: 10; Plant response rating, Kochia [8, 19]: 80; Plant response rating, Wheat [9, 19]: 30; Plant response rating, Barnyardgrass [10, 19]: 70; Plant response rating, Corn [11, 19]: 10; Plant response rating, Ragweed [12, 19]: 90; Barnyardgrass plant response rating ([13]; 500 g ai/ha): 50; Plant response rating, Foxtail, Giant [15, 19]: 60; Pigweed plant response rating [16]: 80
Cc1cc(C)c(C(=O)N2CCC(Cl)CC2)cc1NS(=O)(=O)C(F)(F)F [Compound 242]	–	–	–	–	–	–	–	–	–	–	–	–	–	–	–	–	–	–	–	–	Plant response rating, Galium [1, 20]: 90; Plant response rating, Kochia ([2]; 1000 g ai/ha): 90; Plant response rating, Pigweed [3, 20]: 90; Plant response rating, Ryegrass, Italian ([4]; 1000 g ai/ha): 100; Plant response rating, Foxtail, Giant ([5]; 1000 g ai/ha): 100; Plant response rating, Ryegrass, Italian [6, 20]: 0; Plant response rating, Blackgrass [7, 20]: 40; Plant response rating, Kochia [8, 20]: 80; Plant response rating, Wheat [9, 20]: 60; Plant response rating, Barnyardgrass [10, 20]: 90; Plant response rating, Corn [11, 20]: 70; Plant response rating, Ragweed [12, 20]: 90; Plant response rating, Barnyardgrass ([13]; 1000 g ai/ha): 100; Plant response rating, Ragweed ([14]; 1000 g ai/ha): 90; Plant response rating, Foxtail, Giant [15, 20]: 90; Plant response rating, Pigweed ([16]; 1000 g ai/ha): 100
Cc1cc(C)c(N(S(=O)(=O)C(F)(F)F)S(=O)(=O)C(F)(F)F)cc1C(=O)N1CCC(Cl)CC1 [Compound 243]	70	20	80	90	90	100	100	100	0	0	10	0	50	0	30	80	70	80	0	100	Plant response rating, Galium [1, 19]: 90; Plant response rating, Pigweed [3, 19]: 100; Plant response rating, Ryegrass, Italian [6, 19]: 30; Plant response rating, Blackgrass [7, 19]: 10; Plant response rating, Kochia [8, 19]: 70; Plant response rating, Wheat [9, 19]: 30; Plant response rating, Barnyardgrass [10, 19]: 70; Plant response rating, Corn [11, 19]: 0; Plant response rating, Ragweed [12, 19]: 90; Barnyardgrass plant response rating ([13]; 500 g ai/ha): 90; Plant response rating, Foxtail, Giant [15, 19]: 40; Pigweed plant response rating [16]: 100
COC1CCN(C(=O)c2cc(NS(=O)(=O)C(F)(F)F)c(Cl)cc2C)CC1 [Compound 246]	90	40	90	90	70	100	90	100	0	20	20	20	70	20	90	40	80	90	60	90	Plant response rating, Galium [1, 19]: 90; Plant response rating, Pigweed [3, 19]: 90; Plant response rating, Ryegrass, Italian [6, 19]: 10; Plant response rating, Blackgrass [7, 19]: 0; Plant response rating, Kochia [8, 19]: 80; Plant response rating, Wheat [9, 19]: 60; Plant response rating, Barnyardgrass [10, 19]: 90; Plant response rating, Corn [11, 19]: 40; Plant response rating, Ragweed [12, 19]: 90; Barnyardgrass plant response rating ([13]; 500 g ai/ha): 100; Plant response rating, Foxtail, Giant [15, 19]: 90; Pigweed plant response rating [16]: 100
